Measured values: patent US20230027066A1 (Urovant Sciences GmbH, priority 2019, published 2023)

Tested on: men and women with overactive bladder
Assay: Phase 3 study of vibegron 75 mg vs placebo and tolterodine ER 4 mg, 12 weeks, efficacy (voiding and urine volume diary)
Format: in vivo, human
Conditions: for Patients with at Least 50% Reduction in Urgency Episodes, Adjusted n / Patients with at Least 50% Reduction in Urgency Episodes, Unadjusted (%) / Patients with at Least 50% Reduction in Urgency Episodes, Unadjusted n / Urgency 50% responders, Active - Placebo CMH Difference / Patients with at Least 50% Reduction in Urgency Episodes, Adjusted (%): Dry population; for Urgency Episodes, Week 12 CFB Mean: descriptive statistics; for Micturitions: LS Mean (95% CI): Table 32, week 12
Experimental: Enrollment of patients included individuals with OAB Wet (those with UUI, the involuntary loss of urine accompanied by urgency) and OAB Dry (those without UUI). A total of 1,518 patients were randomized across 215 study sites into one of three groups for a 12-week treatment period.
The study consisted of a Screening Period (1 to 5 weeks), a single-blind Run-in Period (2 weeks), a randomized double-blind Treatment Period (12 weeks), and a Follow-up Period (4 weeks).
Tolterodine ER 4 mg was the active control. […] Between the Baseline and Week 12 Visits, patients had study assessments at Week 4 and Week 8.
The Patient Voiding Diary was used by participants (via the eDiary or paper Diary) to record the frequency of daily OAB symptoms including all micturitions, urgency, incontinence, and main reason for incontinence by selecting the respective box for each symptom occurring during the course of a given day and night.
Urine volume data were collected separately by patients using the Urine Volume component of the eDiary, or the paper Urine Volume Chart. The Urine Volume Chart is a tool used in clinical practice and clinical investigation to assess voiding functions over a 24-hour period and is regarded as a useful instrument in the investigation of patients with voiding symptoms. Urine volume may be collected during any one (1) of the 7 Diary Days prior to the visit, and it should be recorded for ˜24 hours starting from the time the patient gets up for the day and continues until the time the patient gets up for the day on the next day.
For the purpose of this study, the number of micturitions was defined as the number of times a patient has voided in the toilet as indicated on the Patient Voiding Diary. Average daily micturitions were calculated using the daily entries in the Patient Voiding Diary, which was completed over the 7 days prior to each study visit. Average daily number of micturitions were calculated as the total number of micturitions that occurred on a Complete Diary Day divided by the number of Complete Diary Days in the Patient Voiding Diary. A complete diary day required confirmation by the patient in the Patient Voiding Diary that all voids and leakages had been recorded for the diary day. Baseline was defined as the average number of micturitions occurring during the last evaluable diary prior to the Baseline Visit.
The number of UUI episodes was defined as the number of times a patient had checked “urge” as the reason for accidental urine leakage. Average daily UUI episodes at each study visit were calculated in the same manner as described above for the micturition endpoint. The UUI endpoint were analyzed using only OAB Wet patients.
For the analysis of the co-primary endpoints (change from baseline in average number of daily micturitions at Week 12 and change from baseline in average number of daily urge urinary incontinence episodes at Week 12, and placebo adjustment of each), a mixed model for repeated measure (MMRM) with restricted maximum likelihood estimation was used. This model corrects for dropout and accounts for the fact that measurements taken on the same patient over time tend to be correlated by using all available information on patients within the same covariate set to derive an estimate of the treatment effect for a dropout-free population. The analysis model for each efficacy endpoint includes terms for treatment, visit, OAB Type (Wet vs Dry), Sex (Female vs Male), Region (US vs Rest of World), baseline score, and interaction of visit by treatment.
Primary inferences were drawn from treatment differences for the changes from baseline derived from the MMRM models at Week 12. As part of secondary objectives, the treatment differences for each post baseline visit were also derived using the same MMRM model. […]

[1] = No prior anticholinergic use during the prior 12 months
[2] = No prior mirabegron use during the prior 12 months
[3] = Overall, events of Events/Censored
[4] = Prior anticholinergic use during the prior 12 months
[5] = Prior mirabegron use during the prior 12 months
[6] = Week 2, events of Events/Censored
[7] = Week 4, events of Events/Censored

O=C(Nc1ccc(C[C@@H]2CC[C@H]([C@H](O)c3ccccc3)N2)cc1)[C@@H]1CCc2nccc(=O)n21 [Vibegron, (6S)-N-[4-[[(2S,5R)−5-[(R)-hydroxy(phenyl)methyl]pyrrolidin−2-yl]methyl]phenyl]−4-oxo−7,8-dihydro−6H-pyrrolo[1,2-a]pyrimidine−6-carboxamide]
Patients with at Least 50% Reduction in Urgency Episodes, Adjusted n (baseline to Week 4): 28
Patients with at Least 50% Reduction in Urgency Episodes, Unadjusted (%) (baseline to Week 4): 25.2%
Patients with at Least 50% Reduction in Urgency Episodes, Unadjusted n (baseline to Week 4): 31
Urgency 50% responders, Active - Placebo CMH Difference (baseline to Week 4): 5.4
Patients with at Least 50% Reduction in Urgency Episodes, Adjusted (%) (baseline to Week 8): 31.9%
Patients with at Least 50% Reduction in Urgency Episodes, Adjusted n (baseline to Week 8): 39
Patients with at Least 50% Reduction in Urgency Episodes, Unadjusted (%) (baseline to Week 8): 35.0%
Patients with at Least 50% Reduction in Urgency Episodes, Unadjusted n (baseline to Week 8): 43
Urgency 50% responders, Active - Placebo CMH Difference (baseline to Week 8): 12.4
Patients with at Least 50% Reduction in Urgency Episodes, Adjusted (%) (baseline to Week 12): 36.9%
Patients with at Least 50% Reduction in Urgency Episodes, Adjusted n (baseline to Week 12): 45
Patients with at Least 50% Reduction in Urgency Episodes, Unadjusted (%) (baseline to Week 12): 43.1%
Patients with at Least 50% Reduction in Urgency Episodes, Unadjusted n (baseline to Week 12): 53
Urgency 50% responders, Active - Placebo CMH Difference (baseline to Week 12): 13.9
Urgency Episodes, Week 12 CFB Mean (Males with BPH): −1.90
Urgency Episodes, Week 12 CFB Mean (Males without BPH): −2.56
Urgency Episodes, Week 12 CFB Mean (No Prior ACH Use in last 12 Mo.): −3.00
Urgency Episodes, Week 12 CFB Mean (No Prior B3 Agonist Use in last 12 Mo.): −2.94
Micturitions, 12-week change [1]: −2.1
UUI Episodes, 12-week change [1]: −2.1
Micturitions, 12-week change [2]: −2.0
UUI Episodes, 12-week change [2]: −2.0
Overall Time to First 50% Decrease in Urgency Episodes, 25th Percentile (Overall): 4.1 weeks
Overall Time to First 50% Decrease in Urgency Episodes, 50th Percentile (Overall): 12.3 weeks
Overall Time to First 50% Decrease in Urgency Episodes, Median (95% CI) (Overall): 12.3 (12.1 to 12.6) weeks
Overall Time to First 100% Decrease in UUI Episodes, 25th Percentile (Overall): 8.1, NE weeks
Overall Time to First 100% Decrease in UUI Episodes, Median (95% CI) (Overall): 13.3 (12.9 to NE) weeks
Urgency Episodes, Week 12 CFB Mean (Overall): −2.93
First 50% Decrease in Urgency Episodes, Events [3]: 256/270
First 100% Decrease in UUI Episodes, Events [3]: 146/257
Urgency Episodes, Week 12 CFB Mean (Prior ACH Use in last 12 Mo.): −2.50
Urgency Episodes, Week 12 CFB Mean (Prior B3 Agonist Use in last 12 Mo.): −2.56
Micturitions, 12-week change [4]: −1.97
UUI Episodes, 12-week change [4]: −1.46
Micturitions, 12-week change [5]: −2.83
UUI Episodes, 12-week change [5]: −1.64
Micturitions: LS Mean (95% CI) (Age <65 years): −0.2 (−0.6 to 0.2)
Micturitions: LS Mean (95% CI) (Age ≥65 years): −0.9 (−1.3 to −0.4)
Micturitions: LS Mean (95% CI) (Age ≥75 years (posthoc analysis)): −1.0 (−1.8 to −0.1)
Micturitions: LS Mean (95% CI) (Females): −0.5 (−0.8 to −0.2)
Micturitions: LS Mean (95% CI) (Males): −0.6 (−1.4 to 0.1)
Micturitions: LS Mean (95% CI) (Non-White): −0.5 (−1.2 to 0.1)
Micturitions: LS Mean (95% CI) (OAB Type: Dry): −0.7 (−1.4 to −0.1)
Micturitions: LS Mean (95% CI) (OAB Type: Wet): −0.5 (−0.8 to −0.1)
Micturitions: LS Mean (95% CI) (Overall): −0.5 (−0.8 to −0.2)
Micturitions: LS Mean (95% CI) (Region: Non-US): −0.4 (−1.4 to 0.5)
Micturitions: LS Mean (95% CI) (Region: US): −0.5 (−0.8 to −0.2)
Micturitions: LS Mean (95% CI) (White): −0.5 (−0.8 to −0.2)
Average Daily Number of Total Incontinence, Mean (SD) (Week 2): 2.53 (3.118)
Average daily number of urgency episodes, Mean (SD) (Week 2): 6.47 (4.458)
Average volume voided per micturition, Active - Placebo LS Mean Difference (Week 2): 11.9 mL
Change from Baseline in Average Daily Number of Total Incontinence, LS Mean (SE) (Week 2): −1.6 (0.14)
Change from baseline in average daily number of urgency episodes, LS Mean (Week 2): −1.5
Change from baseline in average volume voided per micturition, LS Mean (SE) (Week 2): 14.2 (3.02) mL
Estimated Incidence of Subjects with 50% Decrease from Baseline (urgency episodes) (Week 2): 19.6
Estimated Incidence of Subjects with 100% Decrease from Baseline (UUI episodes) (Week 2): 7.4
Total Incontinence, Active - Placebo LS Mean Difference (SE) (Week 2): −0.7 (0.14)
Urgency episodes, Active - Placebo LS Mean Difference (Week 2): −0.6
First 50% Reduction in Urgency Episodes, Events [6]: 103/423
First 100% Reduction in UUI Episodes, Events [6]: 30/373
Average volume voided per micturition, Week 2 Mean (SD) (Week 2, vibegron 75 mg, tolterodine ER 4 mg): 165.6 (74.26) mL
Average Daily Number of Total Incontinence, Mean (SD) (Week 4): 2.28 (3.239)
Average daily number of urgency episodes, Mean (SD) (Week 4): 6.02 (4.458)
Average volume voided per micturition, Active - Placebo LS Mean Difference (Week 4): 14.5 mL
Average volume voided per micturition, Week 4 Mean (SD) (Week 4): 172.6 (76.57) mL
Change from Baseline in Average Daily Number of Total Incontinence, LS Mean (SE) (Week 4): −1.9 (0.14)
Change from baseline in average daily number of urgency episodes, LS Mean (Week 4): −1.9
Change from baseline in average volume voided per micturition, LS Mean (SE) (Week 4): 18.9 (3.15) mL
Estimated Incidence of Subjects with 50% Decrease from Baseline (urgency episodes) (Week 4): 21.1
Estimated Incidence of Subjects with 100% Decrease from Baseline (UUI episodes) (Week 4): 9.2
Total Incontinence, Active - Placebo LS Mean Difference (SE) (Week 4): −0.8 (0.14)
Urgency episodes, Active - Placebo LS Mean Difference (Week 4): −0.8
First 50% Reduction in Urgency Episodes, Events [7]: 111/415
First 100% Reduction in UUI Episodes, Events [7]: 37/366
Average Daily Number of Total Incontinence, Mean (SD) (Week 8): 2.05 (3.245)
Average daily number of urgency episodes, Mean (SD) (Week 8): 5.58 (4.399)
Average volume voided per micturition, Active - Placebo LS Mean Difference (Week 8): 18.3 mL
Average volume voided per micturition, Week 8 Mean (SD) (Week 8): 173.4 (81.95) mL
Change from Baseline in Average Daily Number of Total Incontinence, LS Mean (SE) (Week 8): −2.1 (0.15)
Change from baseline in average daily number of urgency episodes, LS Mean (Week 8): −2.4
